These results are taken from US20160166540A1, “MODULATORS FOR ATP-BINDING CASSETTE TRANSPORTERS” (VERTEX PHARMACEUTICALS INCORPORATED, priority 2011, published 2016).

The assay concerns the target T1, ΔF508-CFTR (Homo sapiens, UniProt P13569, DEL508-508).
T1 construct: expressed in transfected cells
Description: Membrane potential optical assay for ΔF508-CFTR correction (identification of correction compounds). It is filed as cell-based. Conditions: NIH3T3; NIH 3T3 cells stably expressing ΔF508-CFTR; read-out: % Efficacy. The text has this:
Assays for Detecting and Measuring M508-CFTR Correction Properties of Compounds
Membrane potential optical methods for assaying ΔF508-CFTR modulation properties of compounds.
The assay utilizes fluorescent voltage sensing dyes to measure changes in membrane potential using a fluorescent plate reader (e.g., FLIPR III, Molecular Devices, Inc.) as a readout for increase in functional ΔF508-CFTR in NIH 3T3 cells. The driving force for the response is the creation of a chloride ion gradient in conjunction with channel activation by a single liquid addition step after the cells have previously been treated with compounds and subsequently loaded with a voltage sensing dye.
To identify small molecules that correct the trafficking defect associated with ˜F508-CFTR; a single-addition HTS assay format was developed. Assay Plates containing cells are incubated for ˜2-4 hours in tissue culture incubator at 37° C., S % CO2, 90% humidity. Cells are then ready for compound exposure after adhering to the bottom of the assay plates.
The cells were incubated in serum-free medium for 16-24 hrs in tissue culture incubator at 37° C., S % CO2, 90% humidity in the presence or absence (negative control) of test compound. […] The addition of Cl^−-free medium promoted Cl^− efflux in response to ΔF508-CFTR activation and the resulting membrane depolarization was optically monitored using voltage sensor dyes. […]

Bounds are passed on as bounds.

T1 sequence (P13569 with tags, fused parts or gaps DEL508-508): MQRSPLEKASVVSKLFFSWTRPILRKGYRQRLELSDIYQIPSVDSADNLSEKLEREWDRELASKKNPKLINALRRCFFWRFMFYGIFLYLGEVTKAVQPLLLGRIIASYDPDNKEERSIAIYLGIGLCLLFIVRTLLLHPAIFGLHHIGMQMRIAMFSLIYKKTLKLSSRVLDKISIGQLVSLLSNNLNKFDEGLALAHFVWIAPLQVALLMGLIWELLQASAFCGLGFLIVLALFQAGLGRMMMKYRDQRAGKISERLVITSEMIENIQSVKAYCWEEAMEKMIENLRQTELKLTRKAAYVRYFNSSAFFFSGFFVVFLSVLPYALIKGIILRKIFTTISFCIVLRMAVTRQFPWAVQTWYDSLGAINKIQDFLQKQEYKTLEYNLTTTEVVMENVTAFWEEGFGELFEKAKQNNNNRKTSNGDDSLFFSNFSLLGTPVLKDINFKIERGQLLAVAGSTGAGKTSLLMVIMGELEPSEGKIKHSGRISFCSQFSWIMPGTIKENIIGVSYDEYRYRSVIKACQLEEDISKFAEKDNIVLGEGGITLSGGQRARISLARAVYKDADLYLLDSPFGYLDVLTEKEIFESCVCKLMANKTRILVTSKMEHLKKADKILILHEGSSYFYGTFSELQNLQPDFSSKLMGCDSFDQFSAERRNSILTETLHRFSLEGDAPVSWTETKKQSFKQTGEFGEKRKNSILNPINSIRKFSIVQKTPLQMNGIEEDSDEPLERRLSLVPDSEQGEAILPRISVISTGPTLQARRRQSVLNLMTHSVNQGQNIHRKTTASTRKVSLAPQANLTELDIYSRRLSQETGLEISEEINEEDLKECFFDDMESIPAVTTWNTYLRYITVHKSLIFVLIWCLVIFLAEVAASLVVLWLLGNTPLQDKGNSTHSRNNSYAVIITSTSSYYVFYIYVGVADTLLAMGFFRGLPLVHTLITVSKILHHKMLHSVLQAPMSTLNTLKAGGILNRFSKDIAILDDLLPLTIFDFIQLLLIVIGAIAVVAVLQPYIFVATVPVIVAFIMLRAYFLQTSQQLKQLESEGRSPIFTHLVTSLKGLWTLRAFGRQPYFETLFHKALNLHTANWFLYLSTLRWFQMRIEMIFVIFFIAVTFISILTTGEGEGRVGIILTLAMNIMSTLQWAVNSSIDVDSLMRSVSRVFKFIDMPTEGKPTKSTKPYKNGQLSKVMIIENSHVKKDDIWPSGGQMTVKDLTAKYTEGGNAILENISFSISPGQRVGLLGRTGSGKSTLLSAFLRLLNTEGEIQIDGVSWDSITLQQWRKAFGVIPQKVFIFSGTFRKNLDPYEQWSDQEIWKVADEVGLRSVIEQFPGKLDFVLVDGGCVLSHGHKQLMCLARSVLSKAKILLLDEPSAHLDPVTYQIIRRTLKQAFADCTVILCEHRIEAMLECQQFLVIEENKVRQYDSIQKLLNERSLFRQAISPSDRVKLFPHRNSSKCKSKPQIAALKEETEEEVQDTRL

`CC1(C)c2cc3cc(NC(=O)C4(c5ccc6c(c5)OC(F)(F)O6)CC4)c(F)cc3n2C[C@H](CO)OC1O` (stereo partly drawn) [1-(2,2-difluorobenzo[d][1,3]dioxol-5-yl)-N-((4R)-8-fluoro-2-hydroxy-4-(hydroxymethyl)-1,1-dimethyl-1,2,4,5-tetrahydro-[1,4]oxazepino[4,5-a]indol-9-yl)cyclopropanecarboxamide]: the Emax was over 100%.
